Structures are written as SMILES.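 Briefly, cells in 96-well plates were exposed to five compound concentrations for 48 h, and endpoints were estimated by linear interpolation. GI50 = concentration required for 50% inhibition of growth.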 The source made the active and inactive calls. Cut-off read from the data, not from the text of the source: active = GI50 up to about 1.1 µM and inactive = higher.

Test systems include KM12; NCI-H522; HT-29; OVCAR-3; COLO 205; RXF 393; MCF7; NCI-H23; CAKI-1; HCT-116; MOLT-4; MDA-MB-231; HOP-62; CCRF-CEM; OVCAR-4; HCT-15; UACC-257; LOX IMVI; Malme-3M; SK-MEL-5.
Common to all, as to assay: NCI-60 cell line screen, 48 h

For the molecule `Oc1ccc(-c2cc(-c3cc(-c4ccc(O)cc4)no3)on2)cc1`, the GI50 in the test on KM12 was 11.8 µM (inactive); with NCI-H522, 19.7 µM (inactive); in the test with HT-29, > 100 µM (inactive); in the test on OVCAR-3, > 100 µM (inactive); in the test on COLO 205, > 100 µM (inactive); in the test with RXF 393 it was > 100 µM (inactive). Moreover, the GI50 is 34.2 µM (inactive) in the test on MCF7; > 100 µM (inactive) in the test on NCI-H23; 56.6 µM (inactive) in the test with CAKI-1; 45.3 µM (inactive) with HCT-116; 1.35 µM (inactive) in the test on MOLT-4; > 24.4 µM (inactive) in the test on MDA-MB-231. The GI50 was > 50.9 µM (inactive) with HOP-62; 0.873 µM (active) in the test on CCRF-CEM; > 100 µM (inactive) in the test with OVCAR-4; 1.98 µM in the test on HCT-15; 7.64 µM (inactive) in the test on UACC-257; 11.5 µM (inactive) in the test with LOX IMVI. The GI50 in the test with Malme-3M is 46.1 µM (inactive); in the test on SK-MEL-5 it was 36.9 µM (inactive).
In the case of `O=C(O)/C(O)=C\C(=O)c1ccc(Br)cc1`, the GI50 in the test on KM12, in the test with NCI-H522, in the test with HT-29, in the test on OVCAR-3, with COLO 205 and with RXF 393 was > 100 µM (inactive) throughout. For the same molecule, the GI50 in the test on MCF7, in the test on NCI-H23, in the test with CAKI-1, in the test on HCT-116, with MOLT-4 and with MDA-MB-231 was > 100 µM (inactive) each time. Further, the GI50 in the test on HOP-62 was > 100 µM (inactive); in the test on CCRF-CEM, 68.7 µM (inactive); with OVCAR-4, > 100 µM (inactive); with HCT-15, over 100 µM; in the test on UACC-257 it was > 100 µM (inactive); in the test with LOX IMVI, > 100 µM (inactive). Also, the GI50 in the test with Malme-3M and in the test with SK-MEL-5 was > 100 µM (inactive) throughout.
For the molecule `CCN(CC)/[N+]([O-])=N/OCOC`, the GI50 in the test with KM12, in the test on NCI-H522, in the test on HT-29, with OVCAR-3, in the test on COLO 205 and in the test with RXF 393 was > 100 µM (inactive) in each case. For the same molecule, the GI50 in the test on MCF7, in the test on NCI-H23, with CAKI-1, in the test on HCT-116, with MOLT-4 and in the test with MDA-MB-231 was > 100 µM (inactive) throughout. Moreover, the GI50 with HOP-62 is > 100 µM (inactive); with CCRF-CEM, > 100 µM (inactive); with OVCAR-4 it was > 100 µM (inactive); in the test on HCT-15, over 100 µM; in the test on UACC-257, > 100 µM (inactive); in the test with LOX IMVI, > 100 µM (inactive). The GI50 with Malme-3M and in the test with SK-MEL-5 was > 100 µM (inactive) in each case.
`CN(C)c1ccc(/N=N\c2cccc3ncccc23)cc1`: the GI50 in the test on KM12 was 33.6 µM (inactive); with NCI-H522 it was 20.8 µM (inactive); in the test with HT-29, 39 µM (inactive); in the test with OVCAR-3 it was 22.9 µM (inactive); in the test on COLO 205 it was 64 µM (inactive); with RXF 393, > 100 µM (inactive). Moreover, the GI50 was 0.063 µM (active) in the test on MCF7; > 100 µM (inactive) in the test on NCI-H23; > 93.8 µM (inactive) in the test with CAKI-1; 52.7 µM (inactive) in the test with HCT-116; 26.2 µM (inactive) with MOLT-4; 41.1 µM (inactive) in the test with MDA-MB-231. The GI50 in the test on HOP-62 is 93.5 µM (inactive); in the test on CCRF-CEM it was 51.3 µM (inactive); with OVCAR-4, > 100 µM (inactive); in the test on HCT-15 it was 51.9 µM; in the test on UACC-257, > 100 µM (inactive); with LOX IMVI it was 53.2 µM (inactive). In addition, the GI50 in the test with Malme-3M is > 90.8 µM (inactive); in the test with SK-MEL-5, 20.4 µM (inactive).

Values taken from ChEMBL document CHEMBL1201862, “PubChem BioAssay data set” (2004).
